Source: the NIST ThermoML archive (doi:10.1016/j.jct.2019.03.009)

Test: mn = molality of the nth substance listed, in mol/kg
Details: 298.15 K, 101.3 kPa, Liquid, Taylor dispersion method

CCC(N)C(=O)O (stereo not drawn) [(.+-.)-α-aminobutyric acid] + O
Details	binary diffusion coefficient [m2/s]
m1 = 0.001003	8.42e-10
m1 = 0.005014	8.41e-10
m1 = 0.01003	8.39e-10
m1 = 0.02005	8.38e-10
m1 = 0.05008	8.35e-10
m1 = 0.1	8.32e-10
